{
  "source": "patent US8389509B2",
  "about": "“Substituted pyrazole compounds” (Bristol-Myers Squibb Company, priority 2009, dated 2013)",
  "key": {"[1]": {"system": "circulating lymphocytes", "assay": "Blood Lymphocyte Reduction Assay (BLR) in rats", "format": "in vivo, Lewis rats", "details": "oral", "protocol": "Blood Lymphocyte Reduction Assay (BLR) in Rodents\nLewis rats or BALB/c mice were dosed orally with test article (as a solution or suspension in the vehicle) or vehicle alone (polyethylene glycol 300, “PEG300”). Blood was drawn at 4 hr and 24 h by retro-orbital bleeding. Blood lymphocyte counts were determined on an ADVIA 120 Hematology Analyzer (Siemens Healthcare Diagnostics). The results were measured as a reduction in the percentage of circulating lymphocytes as compared to the vehicle treated group at the 4 hr and 24 hr measurement. The results represent the average results of all animals within each treatment group (n=3-4).\nCompounds of the present invention were tested in the Blood Lymphocyte Reduction assay (BLR) described hereinabove and the results are shown in Table D for rats and Table E for mice."}, "[2]": {"system": "Lewis rats", "assay": "Rat Adjuvant Induced Arthritis Assay (AA)", "format": "in vivo", "details": "for Paw Swelling (mL) on Day 20, Mean: vehicle mean 2.11", "protocol": "Rat Adjuvant Induced Arthritis Assay (AA)\nMale Lewis rats (150-175 g; Harlan, n=8 treatment group) were immunized at the base of the tail with 100 μl of 10 mg/ml freshly ground Mycobacterium butyricum (Difco Laboratories) in incomplete Freund's adjuvant (sigma). Animals were dosed once daily with the test article (as a solution or suspension in the vehicle) or vehicle alone (polyethylene glycol 300, “PEG300”) starting from the day of immunization. The volumes of their hind paws were measured in a water displacement plethysmometer (Ugo Basile, Italy). The baseline paw measurements were taken before onset of the disease (between day 7 to day 10). The paw measurements were then taken three times a week until the end of the study on day 20 to 21. All procedures involving animals were reviewed and approved by the Institutional Animal Care Use Committee.\nCompounds of the present invention were tested in the Rat Adjuvant Induced Arthritis assay described hereinabove and the results are shown in Table F and Table G."}, "[3]": {"target": "S1P3 (Homo sapiens, UniProt Q99500)", "sequence (Q99500 whole entry)": "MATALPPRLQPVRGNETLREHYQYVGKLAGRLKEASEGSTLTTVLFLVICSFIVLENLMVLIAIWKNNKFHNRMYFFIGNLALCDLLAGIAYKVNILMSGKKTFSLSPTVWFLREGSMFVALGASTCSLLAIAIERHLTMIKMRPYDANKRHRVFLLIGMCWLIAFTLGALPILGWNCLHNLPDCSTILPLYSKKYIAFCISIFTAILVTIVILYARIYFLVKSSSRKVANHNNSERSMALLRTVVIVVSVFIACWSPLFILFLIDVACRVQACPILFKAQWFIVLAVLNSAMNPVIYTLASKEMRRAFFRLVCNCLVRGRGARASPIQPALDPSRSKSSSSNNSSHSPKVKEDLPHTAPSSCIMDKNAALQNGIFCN", "assay": "Method B: Receptor [35S] GTPγS SPA Binding Assay, S1P3", "format": "biochemical", "parameters": "expressed in transfected cells; host or cells: CHO cells", "details": "S1P3 transfected CHO cell membranes", "protocol": "(§1) Method B: Receptor [^35S] GTPγS SPA Binding Assays\n(§2) Membranes prepared from S1P1 or S1P3 transfected CHO cells (2 μg protein) were incubated in 96-well white plates (CORNING® 3693) with test compounds diluted in DMSO, in 50 μl of reaction mixture containing 7.5 μA WGA-PVT beads (20 mg/ml), and 5 μM GDP, 20 mM HEPES pH 7.4, 100 mM NaCl, 1 mM EDTA, 5 mM MgCl2, 10 μg/ml saponin, 0.1% BSA, and 1 μM leupeptin. The assay was initiated with the addition of […] of 0.2 nM [^35S]-GTPγS (1250 Ci/mmol; NEN) in assay buffer. After 90 min incubation at room temperature, spin the plate at 1000 rpm for 5 min. The bound radionuclides were measured at TOPCOUNT®, expressed as % response relative to S1P (1 μM) activation. Data was analyzed using the four parameter logistic equation in Excel. The four parameters in the equation, Y=A+((B−A)/(1+((EC50/X)^D))), are described as following: A is the Y value (agonist activity) at the bottom plateau; B is the Y value at the top plateau; EC50 is the X value (agonist concentration) when the response is halfway between bottom and top; D is Hill coefficient. Curves were not generated for compounds having Ymax values were below 50%.\n(§3) Compounds of the present invention and Comparative Compound A were tested in the Receptor [^35S] GTPγS Binding Assays (Method A) and Receptor [^35S] In some instances, the value is an average of multiple experiments where N is the number of experiments conducted that provided satisfactory dose response curves. When more than one batch of an example was tested, the value presented is from a batch which allowed a comparison of GTPγS S1P1 and GTPγS S1P3 in which the most number of experiments were performed. Preferably, the same batch was examined in Method A and Method B. Data was not averaged across different batches of an example compound."}, "[4]": {"target": "T1, S1P1 (Homo sapiens, UniProt P21453)", "T1 construct": "expressed in transfected cells; host or cells: CHO cells", "T1 sequence (P21453 whole entry)": "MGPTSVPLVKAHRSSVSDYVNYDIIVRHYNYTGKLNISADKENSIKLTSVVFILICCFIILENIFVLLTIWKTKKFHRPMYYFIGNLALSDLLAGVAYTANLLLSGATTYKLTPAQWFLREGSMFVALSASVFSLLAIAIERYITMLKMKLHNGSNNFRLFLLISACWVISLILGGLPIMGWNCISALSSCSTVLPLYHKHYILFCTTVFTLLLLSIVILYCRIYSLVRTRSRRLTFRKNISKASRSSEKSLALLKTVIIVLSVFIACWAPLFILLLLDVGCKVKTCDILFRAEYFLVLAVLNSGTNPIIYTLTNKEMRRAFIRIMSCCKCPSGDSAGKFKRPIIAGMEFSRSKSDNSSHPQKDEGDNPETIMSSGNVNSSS", "assay": "Method B: Receptor [35S] GTPγS SPA Binding Assay, S1P1", "format": "biochemical", "protocol": "as §1, §2, §3"}, "[5]": {"target": "T1, S1P1", "assay": "Method A: Receptor [35S] GTPγS Binding Assay, S1P1", "format": "biochemical", "protocol": "Method A: Receptor [35S] GTPγS Binding Assays\nCompounds were loaded in a 384 FALCON® v-bottom plate (0.5 μl/well in a 3-fold dilution). Membranes prepared from S1P1/CHO cells or EDG3-Gal5-bla HEK293T cells were added to the compound plate (40 μl/well, final protein 3 μg/well) with MULTIDROP®. [^35S]GTP (1250 Ci/mmol, Perkin Elmer) was diluted in assay buffer: 20 mM HEPES, pH7.5, 10 mM MgCl2, 150 mM NaCl, 1 mM EGTA, 1 mM DTT, 10 μM GDP, 0.1% fatty acid free BSA, and 10 μg/ml Saponin to 0.4 nM. 40 μl of the [^35S] GTP solution was added to the compound plate with a final concentration of 0.2 nM. The reaction was kept at room temperature for 45 min. At the end of incubation, all the mixtures in the compound plate were transferred to a 384 well FB filter plates via GPCR robot system. The filter plate was washed with water 4 times by using the modified manifold Embla plate washer and dried at 60° C. for 45 min. 30 μA of MicroScint 20 scintillation fluid was added to each well for counting at Packard TOPCOUNT®. EC50 is defined as the agonist concentration that corresponds to 50% of the Ymax (maximal response) obtained for each individual compound tested.\nas §3"}},
  "data": [
    {"molecule": "O=C(O)C1CN(Cc2ccc(-c3noc(-c4cnn(-c5ccccn5)c4C(F)(F)F)n3)cc2)C1", "note": "[Example 1, 1-(4-(5-(1-(Pyridin-2-yl)-5-(trifluoromethyl)-1H-pyrazol-4-yl)-1,2,4-oxadiazol-3-yl)benzyl)azetidine-3-carboxylic acid]", "values": [
      {"measurement": "% reduction in lymphocytes at 4 hr.", "setting": "[1]; 0.04 mg/kg", "value": 49, "unit": "%"},
      {"measurement": "% reduction in lymphocytes at 24 hr.", "setting": "[1]; 0.04 mg/kg", "value": 6, "unit": "%"},
      {"measurement": "% reduction in lymphocytes at 4 hr.", "setting": "[1]; 0.2 mg/kg", "value": 77, "unit": "%"},
      {"measurement": "% reduction in lymphocytes at 24 hr.", "setting": "[1]; 0.2 mg/kg", "value": 15, "unit": "%"},
      {"measurement": "% reduction in lymphocytes at 4 hr.", "setting": "[1]; 1.0 mg/kg", "value": 86, "unit": "%"},
      {"measurement": "% reduction in lymphocytes at 24 hr.", "setting": "[1]; 1.0 mg/kg", "value": 61, "unit": "%"},
      {"measurement": "% reduction in lymphocytes at 4 hr.", "setting": "[1]; 3.0 mg/kg", "value": 81, "unit": "%"},
      {"measurement": "% reduction in lymphocytes at 24 hr.", "setting": "[1]; 3.0 mg/kg", "value": 75, "unit": "%"},
      {"measurement": "Paw Swelling (mL) on Day 20, Mean", "setting": "[2]; 1.0 mg/kg once daily", "value": 2.36, "unit": "mL"},
      {"measurement": "Paw Swelling (mL) on Day 20, Mean", "setting": "[2]; 3.0 mg/kg once daily", "value": 1.45, "unit": "mL"},
      {"measurement": "Paw Swelling (mL) on Day 20, Mean", "setting": "[2]; 6.0 mg/kg once daily", "value": 0.17, "unit": "mL"},
      {"measurement": "Paw Swelling (mL) on Day 20, Mean", "setting": "[2]; 10.0 mg/kg once daily", "value": 0.12, "unit": "mL"},
      {"measurement": "disease progression as measured by paw swelling", "setting": "[2]; Lewis rat, prophylactic oral dosing", "value": "inhibit disease progression"},
      {"measurement": "EC50", "setting": "[3]", "value": 4.4, "unit": "µM"},
      {"measurement": "EC50", "setting": "[4]; Method B (SPA), S1P1 transfected CHO cell membranes", "value": 0.5, "unit": "nM"},
      {"measurement": "GTPγS S1P3/S1P1 (Method B)", "setting": "[4]; ratio of S1P3 EC50 to S1P1 EC50, Method B", "value": "8,800"},
      {"measurement": "EC50", "setting": "[5]; Method A, S1P1/CHO cell membranes", "value": 2.9, "unit": "nM"},
      {"measurement": "GTPγS S1P3/S1P1 (Method A)", "setting": "[5]; ratio of S1P3 EC50 to S1P1 EC50, Method A", "value": "2,300"}
    ]}
  ]
}
